# Test results as given in article PMC11313072, “Copper(II) and Zinc(II) Complexes with Bacterial Prodigiosin Are Targeting Site III of Bovine Serum Albumin and Acting as DNA Minor Groove Binders” (International Journal of Molecular Sciences, 2024).
# Target: T1, bovine serum albumin (BSA) (Bos taurus, UniProt P02769)
# T1 construct: gene ALB; commercial native full-length BSA (Sigma-Aldrich), mature secreted protein
# Assay: tryptophan fluorescence quenching
# Assay type: binding
# Details: PBS pH 7.4, BSA 5 μM, excitation 280 nm, no site marker, double-log
# From the text: tryptophan fluorescence quenching on bovine serum albumin (BSA)
# T1 sequence (P02769 25-607): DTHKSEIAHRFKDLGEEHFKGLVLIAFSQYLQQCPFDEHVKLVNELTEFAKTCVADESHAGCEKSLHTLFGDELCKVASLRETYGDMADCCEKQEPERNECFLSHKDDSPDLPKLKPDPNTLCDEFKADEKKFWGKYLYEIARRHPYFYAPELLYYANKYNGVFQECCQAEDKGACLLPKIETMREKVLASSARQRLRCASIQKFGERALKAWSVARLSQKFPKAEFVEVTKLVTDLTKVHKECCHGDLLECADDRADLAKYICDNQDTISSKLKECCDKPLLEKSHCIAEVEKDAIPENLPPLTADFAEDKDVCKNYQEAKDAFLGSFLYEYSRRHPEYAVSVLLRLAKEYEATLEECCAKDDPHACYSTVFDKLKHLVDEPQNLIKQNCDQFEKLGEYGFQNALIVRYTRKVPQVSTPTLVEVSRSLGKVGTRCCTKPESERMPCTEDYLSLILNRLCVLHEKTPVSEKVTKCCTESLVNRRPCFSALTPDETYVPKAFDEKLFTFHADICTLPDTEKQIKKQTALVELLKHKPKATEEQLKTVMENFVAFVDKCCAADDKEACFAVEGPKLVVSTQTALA
molecule,measurement,setting,value
"CCCCCC1=C/C(=C/c2[nH]c(-c3ccc[nH]3)cc2OC)N=C1C [PG, prodigiosin]",KA,n = 0.97,5770 M⁻¹
CuPG,KA,n = 1.41,805000 M⁻¹
ZnPG,KA,n = 1.07,7140 M⁻¹
